# Laboratory results as given in the kinase profiling compilation of Christmann-Franck et al. (2016).
# Tests used:
# Assay in all cases: radiometric filter-binding kinase assay, Kinaseprofiler
# NTRK2 (human) = NTRK2 (human) (UniProt Q16620); conditions: ATP 90 µM
# RPS6KA1 KD1 KD2 (human) = RPS6KA1 KD1 KD2 (human) (UniProt Q15418); conditions: ATP 45 µM
# ULK3 (human) = ULK3 (human) (UniProt Q6PHR2); conditions: ATP 10 µM
# MAPK10 (human) = MAPK10 (human) (UniProt P53779); conditions: ATP 10 µM
# PLK3 (human) = PLK3 (human) (UniProt Q9H4B4); conditions: ATP 70 µM
# ACVR1B (human) = ACVR1B (human) (UniProt P36896); conditions: ATP 10 µM
# GRK5 (human) = GRK5 (human) (UniProt P34947); conditions: ATP 15 µM
# PTK6 (human) = PTK6 (human) (UniProt Q13882); conditions: ATP 15 µM
# EPHB1 (human) = EPHB1 (human) (UniProt P54762); conditions: ATP 200 µM
# MINK1 (human) = MINK1 (human) (UniProt Q8N4C8); conditions: ATP 185 µM
# HCK (human) = HCK (human) (UniProt P08631)
# FLT3 (human) = FLT3 (human) (UniProt P36888); conditions: ATP 200 µM
# MAPK14 (human) = MAPK14 (human) (UniProt Q16539); conditions: ATP 90 µM
# DYRK2 (human) = DYRK2 (human) (UniProt Q92630); conditions: ATP 15 µM
# PRKCZ (human) = PRKCZ (human) (UniProt Q05513); conditions: ATP 15 µM
# GRK6 (human) = GRK6 (human) (UniProt P43250); conditions: ATP 45 µM
# EPHA2 (human) = EPHA2 (human) (UniProt P29317); conditions: ATP 155 µM
# LYN (human) = LYN (human) (UniProt P07948); conditions: ATP 70 µM
# FGFR4 (human) = FGFR4 (human) (UniProt P22455); conditions: ATP 155 µM
# CAMK1D (human) = CAMK1D (human) (UniProt Q8IU85); conditions: ATP 15 µM
# AURKB (human) = AURKB (human) (UniProt Q96GD4); conditions: ATP 10 µM
# EPHA4 (human) = EPHA4 (human) (UniProt P54764); conditions: ATP 15 µM
# RPS6KA2 KD1 KD2 (human) = RPS6KA2 KD1 KD2 (human) (UniProt Q15349); conditions: ATP 10 µM
# RET (human) = RET (human) (UniProt P07949); conditions: ATP 70 µM
# STK11 (human) = STK11 (human) (UniProt Q15831); conditions: ATP 155 µM
# PDGFRA (human) = PDGFRA (human) (UniProt P16234); conditions: ATP 120 µM
# PDPK1 (human) = PDPK1 (human) (UniProt O15530); conditions: ATP 10 µM
# CLK2 (human) = CLK2 (human) (UniProt P49760); conditions: ATP 15 µM
# CDK3 CCNE1 (human) = CDK3 CCNE1 (human) (UniProt Q00526+P24864); conditions: ATP 200 µM
# TLK2 (human) = TLK2 (human) (UniProt Q86UE8); conditions: ATP 10 µM
# CDC42BPA (human) = CDC42BPA (human) (UniProt Q5VT25); conditions: ATP 45 µM
# CAMK4 (human) = CAMK4 (human) (UniProt Q16566); conditions: ATP 10 µM
# Sequence of HCK (human) (P08631 whole entry, looked up): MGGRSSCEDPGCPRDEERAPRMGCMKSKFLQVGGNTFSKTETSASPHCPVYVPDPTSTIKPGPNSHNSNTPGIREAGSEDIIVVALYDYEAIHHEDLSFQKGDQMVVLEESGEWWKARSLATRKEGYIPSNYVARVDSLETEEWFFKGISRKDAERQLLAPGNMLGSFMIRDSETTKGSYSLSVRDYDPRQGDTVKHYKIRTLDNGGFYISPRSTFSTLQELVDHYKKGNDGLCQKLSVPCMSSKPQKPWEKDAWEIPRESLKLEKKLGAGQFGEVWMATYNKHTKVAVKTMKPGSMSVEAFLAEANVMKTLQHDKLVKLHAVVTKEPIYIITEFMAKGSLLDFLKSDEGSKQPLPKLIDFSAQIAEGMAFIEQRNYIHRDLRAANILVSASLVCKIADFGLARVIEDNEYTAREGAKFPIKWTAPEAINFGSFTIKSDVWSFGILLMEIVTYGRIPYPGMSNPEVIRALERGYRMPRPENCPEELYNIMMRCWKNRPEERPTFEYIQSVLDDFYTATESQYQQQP
# Sequence of PDPK1 (human) (O15530 whole entry, looked up): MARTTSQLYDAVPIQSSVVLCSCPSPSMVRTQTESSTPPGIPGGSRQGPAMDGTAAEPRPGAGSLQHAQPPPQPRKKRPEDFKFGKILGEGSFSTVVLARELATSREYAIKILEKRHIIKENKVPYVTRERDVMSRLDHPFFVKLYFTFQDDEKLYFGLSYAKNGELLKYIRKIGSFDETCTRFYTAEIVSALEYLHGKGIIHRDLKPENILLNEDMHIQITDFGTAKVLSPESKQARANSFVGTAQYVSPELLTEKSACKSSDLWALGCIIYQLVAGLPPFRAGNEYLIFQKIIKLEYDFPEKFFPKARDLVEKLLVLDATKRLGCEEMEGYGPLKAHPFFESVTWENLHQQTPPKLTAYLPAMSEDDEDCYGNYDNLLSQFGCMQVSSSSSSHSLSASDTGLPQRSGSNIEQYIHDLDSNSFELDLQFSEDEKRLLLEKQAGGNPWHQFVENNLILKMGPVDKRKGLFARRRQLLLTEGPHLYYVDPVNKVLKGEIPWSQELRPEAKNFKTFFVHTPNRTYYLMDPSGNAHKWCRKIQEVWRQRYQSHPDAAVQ
# Sequence of ACVR1B (human) (P36896 whole entry, looked up): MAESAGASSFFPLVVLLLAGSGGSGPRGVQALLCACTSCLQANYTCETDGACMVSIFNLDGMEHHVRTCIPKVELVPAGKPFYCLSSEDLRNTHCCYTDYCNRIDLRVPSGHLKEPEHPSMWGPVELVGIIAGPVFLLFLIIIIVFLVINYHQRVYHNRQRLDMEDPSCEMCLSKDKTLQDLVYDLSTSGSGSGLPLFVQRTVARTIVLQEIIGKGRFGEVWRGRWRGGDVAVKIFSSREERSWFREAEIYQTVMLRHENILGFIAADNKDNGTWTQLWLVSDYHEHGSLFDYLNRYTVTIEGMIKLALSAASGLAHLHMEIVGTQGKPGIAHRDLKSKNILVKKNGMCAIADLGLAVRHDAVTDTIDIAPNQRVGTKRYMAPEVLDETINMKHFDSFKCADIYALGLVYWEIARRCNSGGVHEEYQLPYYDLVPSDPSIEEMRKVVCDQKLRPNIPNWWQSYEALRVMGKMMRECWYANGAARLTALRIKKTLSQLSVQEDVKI
# Sequence of GRK6 (human) (P43250 whole entry, looked up): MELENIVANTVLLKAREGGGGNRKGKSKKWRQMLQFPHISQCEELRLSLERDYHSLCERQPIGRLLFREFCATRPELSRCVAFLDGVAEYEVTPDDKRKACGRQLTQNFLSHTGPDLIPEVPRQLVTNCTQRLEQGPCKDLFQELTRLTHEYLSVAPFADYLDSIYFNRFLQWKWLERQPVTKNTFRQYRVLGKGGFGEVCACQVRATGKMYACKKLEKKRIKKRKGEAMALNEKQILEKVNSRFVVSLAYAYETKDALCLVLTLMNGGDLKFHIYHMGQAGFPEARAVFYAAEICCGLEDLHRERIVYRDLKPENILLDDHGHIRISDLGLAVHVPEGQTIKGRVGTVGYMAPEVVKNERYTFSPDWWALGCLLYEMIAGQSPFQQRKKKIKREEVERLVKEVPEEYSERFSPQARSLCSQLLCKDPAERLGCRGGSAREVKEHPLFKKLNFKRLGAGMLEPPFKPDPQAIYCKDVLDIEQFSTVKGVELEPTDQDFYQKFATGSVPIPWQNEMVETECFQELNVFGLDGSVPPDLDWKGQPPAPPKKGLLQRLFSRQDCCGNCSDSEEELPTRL
# Sequence of RPS6KA1 KD1 KD2 (human) (Q15418 whole entry, looked up): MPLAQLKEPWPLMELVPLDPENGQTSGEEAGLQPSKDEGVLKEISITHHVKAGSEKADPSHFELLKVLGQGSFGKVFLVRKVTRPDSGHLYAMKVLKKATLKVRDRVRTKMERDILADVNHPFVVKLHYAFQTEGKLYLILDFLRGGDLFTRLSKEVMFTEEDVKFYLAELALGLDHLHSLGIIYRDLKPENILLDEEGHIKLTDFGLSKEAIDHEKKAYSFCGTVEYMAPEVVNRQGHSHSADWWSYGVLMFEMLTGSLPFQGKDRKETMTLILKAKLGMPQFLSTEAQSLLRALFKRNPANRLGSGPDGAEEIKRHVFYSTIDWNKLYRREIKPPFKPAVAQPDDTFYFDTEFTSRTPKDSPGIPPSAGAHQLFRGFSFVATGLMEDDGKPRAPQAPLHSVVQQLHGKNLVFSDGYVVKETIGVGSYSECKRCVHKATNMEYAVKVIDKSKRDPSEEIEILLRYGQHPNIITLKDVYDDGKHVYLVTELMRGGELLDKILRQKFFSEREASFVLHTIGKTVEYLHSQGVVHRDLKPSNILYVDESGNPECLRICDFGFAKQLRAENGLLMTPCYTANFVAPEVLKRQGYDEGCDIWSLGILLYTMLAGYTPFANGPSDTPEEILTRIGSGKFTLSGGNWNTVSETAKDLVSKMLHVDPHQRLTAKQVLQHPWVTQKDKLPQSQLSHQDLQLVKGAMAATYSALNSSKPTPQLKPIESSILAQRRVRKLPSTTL
# Sequence of RPS6KA2 KD1 KD2 (human) (Q15349 whole entry, looked up): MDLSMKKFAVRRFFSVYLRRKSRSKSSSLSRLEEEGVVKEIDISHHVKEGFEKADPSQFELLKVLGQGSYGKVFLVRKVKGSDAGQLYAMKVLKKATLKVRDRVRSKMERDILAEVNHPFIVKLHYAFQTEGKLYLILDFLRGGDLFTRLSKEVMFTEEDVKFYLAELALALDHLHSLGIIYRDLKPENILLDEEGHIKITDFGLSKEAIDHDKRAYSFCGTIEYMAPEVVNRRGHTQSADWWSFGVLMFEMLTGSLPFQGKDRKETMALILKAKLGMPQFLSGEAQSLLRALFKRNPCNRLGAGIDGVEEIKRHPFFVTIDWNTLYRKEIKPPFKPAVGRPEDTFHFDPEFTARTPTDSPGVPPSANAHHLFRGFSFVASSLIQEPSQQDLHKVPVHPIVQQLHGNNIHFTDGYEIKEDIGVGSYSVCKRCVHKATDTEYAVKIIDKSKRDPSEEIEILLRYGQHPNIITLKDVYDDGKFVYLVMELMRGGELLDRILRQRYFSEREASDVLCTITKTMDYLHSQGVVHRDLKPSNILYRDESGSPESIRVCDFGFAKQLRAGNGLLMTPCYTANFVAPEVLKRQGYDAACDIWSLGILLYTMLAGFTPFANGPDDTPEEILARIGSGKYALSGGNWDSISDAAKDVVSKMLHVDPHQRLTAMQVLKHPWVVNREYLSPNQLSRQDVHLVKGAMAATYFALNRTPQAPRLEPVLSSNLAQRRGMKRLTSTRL
# Sequence of ULK3 (human) (Q6PHR2 whole entry, looked up): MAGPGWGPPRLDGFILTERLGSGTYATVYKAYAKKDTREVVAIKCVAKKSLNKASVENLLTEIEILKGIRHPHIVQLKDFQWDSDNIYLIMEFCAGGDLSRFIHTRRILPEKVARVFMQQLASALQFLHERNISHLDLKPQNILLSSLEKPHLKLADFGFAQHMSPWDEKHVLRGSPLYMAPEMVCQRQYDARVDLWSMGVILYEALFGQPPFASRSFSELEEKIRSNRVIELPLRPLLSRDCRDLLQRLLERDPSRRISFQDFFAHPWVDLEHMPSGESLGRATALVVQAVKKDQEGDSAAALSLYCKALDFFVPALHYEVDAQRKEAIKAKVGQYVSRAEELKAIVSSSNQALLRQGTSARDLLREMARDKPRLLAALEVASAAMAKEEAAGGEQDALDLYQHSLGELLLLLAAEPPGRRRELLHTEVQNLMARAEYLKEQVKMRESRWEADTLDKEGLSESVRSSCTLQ
# Sequence of MAPK14 (human) (Q16539 whole entry, looked up): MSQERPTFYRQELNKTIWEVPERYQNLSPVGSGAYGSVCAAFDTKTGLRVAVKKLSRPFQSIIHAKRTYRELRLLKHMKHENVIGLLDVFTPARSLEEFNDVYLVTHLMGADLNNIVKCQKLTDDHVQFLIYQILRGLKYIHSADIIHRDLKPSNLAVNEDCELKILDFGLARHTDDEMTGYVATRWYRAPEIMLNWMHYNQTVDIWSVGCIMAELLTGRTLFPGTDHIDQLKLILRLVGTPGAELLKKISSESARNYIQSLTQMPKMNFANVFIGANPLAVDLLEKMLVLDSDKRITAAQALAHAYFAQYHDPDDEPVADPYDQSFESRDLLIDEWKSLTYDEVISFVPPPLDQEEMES
# Sequence of STK11 (human) (Q15831 whole entry, looked up): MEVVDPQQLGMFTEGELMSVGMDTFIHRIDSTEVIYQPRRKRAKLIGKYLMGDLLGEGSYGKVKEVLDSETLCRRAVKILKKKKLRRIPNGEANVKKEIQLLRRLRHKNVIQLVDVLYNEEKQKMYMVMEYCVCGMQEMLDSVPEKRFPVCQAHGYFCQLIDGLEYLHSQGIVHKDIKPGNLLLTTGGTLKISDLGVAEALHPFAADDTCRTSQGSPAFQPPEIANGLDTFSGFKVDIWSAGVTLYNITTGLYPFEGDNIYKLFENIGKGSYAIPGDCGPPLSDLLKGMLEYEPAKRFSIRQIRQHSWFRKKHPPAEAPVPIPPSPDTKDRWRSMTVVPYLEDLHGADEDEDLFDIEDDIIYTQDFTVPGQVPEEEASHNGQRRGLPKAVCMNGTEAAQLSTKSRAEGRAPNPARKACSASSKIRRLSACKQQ
structure (smiles),measurement,setting,value
O=C1c2ccccc2-c2n[nH]c3cccc1c23,residual activity,NTRK2 (human); compound 1.0 µM,32%
same,residual activity,NTRK2 (human); compound 10.0 µM,5%
same,residual activity,RPS6KA1 KD1 KD2 (human); compound 1.0 µM,86%
same,residual activity,RPS6KA1 KD1 KD2 (human); compound 10.0 µM,64%
same,residual activity,ULK3 (human); compound 1.0 µM,73%
same,residual activity,ULK3 (human); compound 10.0 µM,43%
same,residual activity,MAPK10 (human); compound 1.0 µM,5%
same,residual activity,MAPK10 (human); compound 10.0 µM,-6%
same,residual activity,PLK3 (human); compound 1.0 µM,94%
same,residual activity,PLK3 (human); compound 10.0 µM,82%
same,residual activity,ACVR1B (human); compound 1.0 µM,86%
same,residual activity,ACVR1B (human); compound 10.0 µM,84%
same,residual activity,GRK5 (human); compound 1.0 µM,84%
same,residual activity,GRK5 (human); compound 10.0 µM,63%
same,residual activity,PTK6 (human); compound 1.0 µM,95%
same,residual activity,PTK6 (human); compound 10.0 µM,95%
same,residual activity,EPHB1 (human); compound 1.0 µM,91%
same,residual activity,EPHB1 (human); compound 10.0 µM,29%
same,residual activity,MINK1 (human); compound 1.0 µM,86%
same,residual activity,MINK1 (human); compound 10.0 µM,50%
same,residual activity,"HCK (human); compound 1.0 µM, ATP 45 µM",80%
same,residual activity,"HCK (human); compound 1.0 µM, ATP 70 µM",57%
same,residual activity,"HCK (human); compound 10.0 µM, ATP 45 µM",83%
same,residual activity,"HCK (human); compound 10.0 µM, ATP 70 µM",27%
same,residual activity,FLT3 (human); compound 1.0 µM,6%
same,residual activity,FLT3 (human); compound 10.0 µM,1%
same,residual activity,MAPK14 (human); compound 1.0 µM,96%
same,residual activity,MAPK14 (human); compound 10.0 µM,85%
same,residual activity,DYRK2 (human); compound 1.0 µM,4%
same,residual activity,DYRK2 (human); compound 10.0 µM,-5%
same,residual activity,PRKCZ (human); compound 1.0 µM,110%
same,residual activity,PRKCZ (human); compound 10.0 µM,106%
same,residual activity,GRK6 (human); compound 1.0 µM,87%
same,residual activity,GRK6 (human); compound 10.0 µM,81%
same,residual activity,EPHA2 (human); compound 1.0 µM,88%
same,residual activity,EPHA2 (human); compound 10.0 µM,60%
same,residual activity,LYN (human); compound 1.0 µM,70%
same,residual activity,LYN (human); compound 10.0 µM,30%
same,residual activity,FGFR4 (human); compound 1.0 µM,110%
same,residual activity,FGFR4 (human); compound 10.0 µM,89%
same,residual activity,CAMK1D (human); compound 1.0 µM,70%
same,residual activity,CAMK1D (human); compound 10.0 µM,38%
same,residual activity,AURKB (human); compound 1.0 µM,1%
same,residual activity,AURKB (human); compound 10.0 µM,0%
same,residual activity,EPHA4 (human); compound 1.0 µM,105%
same,residual activity,EPHA4 (human); compound 10.0 µM,106%
same,residual activity,RPS6KA2 KD1 KD2 (human); compound 1.0 µM,58%
same,residual activity,RPS6KA2 KD1 KD2 (human); compound 10.0 µM,22%
same,residual activity,RET (human); compound 1.0 µM,43%
same,residual activity,RET (human); compound 10.0 µM,11%
same,residual activity,STK11 (human); compound 1.0 µM,75%
same,residual activity,STK11 (human); compound 10.0 µM,41%
same,residual activity,PDGFRA (human); compound 1.0 µM,108%
same,residual activity,PDGFRA (human); compound 10.0 µM,86%
same,residual activity,PDPK1 (human); compound 1.0 µM,72%
same,residual activity,PDPK1 (human); compound 10.0 µM,19%
same,residual activity,CLK2 (human); compound 1.0 µM,36%
same,residual activity,CLK2 (human); compound 10.0 µM,21%
same,residual activity,CDK3 CCNE1 (human); compound 1.0 µM,26%
same,residual activity,CDK3 CCNE1 (human); compound 10.0 µM,14%
same,residual activity,TLK2 (human); compound 1.0 µM,71%
same,residual activity,TLK2 (human); compound 10.0 µM,38%
same,residual activity,CDC42BPA (human); compound 1.0 µM,115%
same,residual activity,CDC42BPA (human); compound 10.0 µM,116%
same,residual activity,CAMK4 (human); compound 1.0 µM,73%
same,residual activity,CAMK4 (human); compound 10.0 µM,24%
